Target: T1, Prostaglandin G/H synthase 1 (Ovis aries, UniProt P05979)
T1 sequence (P05979 whole entry): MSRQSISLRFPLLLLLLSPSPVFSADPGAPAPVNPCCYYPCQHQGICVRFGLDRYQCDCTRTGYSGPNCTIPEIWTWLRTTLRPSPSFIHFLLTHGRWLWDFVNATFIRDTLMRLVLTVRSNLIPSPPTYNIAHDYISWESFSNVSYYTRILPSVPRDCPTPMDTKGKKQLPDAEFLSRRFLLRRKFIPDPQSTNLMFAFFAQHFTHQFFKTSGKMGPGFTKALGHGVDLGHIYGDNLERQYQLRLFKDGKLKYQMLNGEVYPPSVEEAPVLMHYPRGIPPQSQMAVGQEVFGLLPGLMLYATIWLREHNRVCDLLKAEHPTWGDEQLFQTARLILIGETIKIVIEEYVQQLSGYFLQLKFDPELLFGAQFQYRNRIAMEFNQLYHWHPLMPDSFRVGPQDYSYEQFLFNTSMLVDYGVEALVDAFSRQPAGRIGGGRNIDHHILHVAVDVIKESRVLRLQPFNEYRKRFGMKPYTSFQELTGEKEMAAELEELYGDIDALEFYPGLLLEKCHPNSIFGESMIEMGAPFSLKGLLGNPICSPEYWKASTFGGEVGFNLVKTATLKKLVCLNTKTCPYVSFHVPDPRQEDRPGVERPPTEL
Test: Inhibition of Ovis aries (sheep) COX1 using arachidonic acid as substrate using cyclic naphthalene hydrazide by chemiluminescence assay

| SMILES | IC50 [µM] |
| --- | --- |
| Cc1ccc(-c2nc(-c3ccc(S(C)(=O)=O)cc3)c(-c3ccccc3)[nH]2)cc1 | 10.4 |
| CS(=O)(=O)c1ccc(-c2nc(-c3ccccc3)[nH]c2-c2ccccc2)cc1 | 9.9 |
| CC(=O)Nc1ccc(-c2nc(-c3ccc(S(C)(=O)=O)cc3)c(-c3ccccc3)[nH]2)cc1 | 10.4 |
| CS(=O)(=O)c1ccc(-c2nc(-c3ccc(Cl)cc3)[nH]c2-c2ccccc2)cc1 | 10.1 |
| CS(=O)(=O)c1ccc(-c2nc(-c3ccc(O)cc3)[nH]c2-c2ccccc2)cc1 | 11.3 |
| COc1ccc(-c2nc(-c3ccc(S(C)(=O)=O)cc3)c(-c3ccccc3)[nH]2)cc1 | 10.6 |
| CS(=O)(=O)c1ccc(-c2nc(-c3ccc(F)cc3)[nH]c2-c2ccccc2)cc1 | 11.1 |

From ChEMBL document CHEMBL3046048, “Design and synthesis of new 2,4,5-triarylimidazole derivatives as selective cyclooxygenase (COX-2) inhibitors” (Med Chem Res, 2012)
